Source: patent US20250215010A1, “DIAZABICYCLOOCTANE DERIVATIVES USEFUL AS MATRIX METALLOPROTEINASE INHIBITORS” (VASA THERAPEUTICS SPOLKA Z OGRANICZONA ODPOWIEDZIALNOSCIA, priority 2022, published 2025)
Where two headings read alike, the source gives them in different places.

Columns and labels:
Format in all cases: biochemical
MMP1 = target: T1, MMP1 (Homo sapiens, UniProt P03956); experiment: MMP-1 colorimetric inhibition assay (Enzo kit BML-AK404)
T1 sequence (P03956 100-269 limits assumed): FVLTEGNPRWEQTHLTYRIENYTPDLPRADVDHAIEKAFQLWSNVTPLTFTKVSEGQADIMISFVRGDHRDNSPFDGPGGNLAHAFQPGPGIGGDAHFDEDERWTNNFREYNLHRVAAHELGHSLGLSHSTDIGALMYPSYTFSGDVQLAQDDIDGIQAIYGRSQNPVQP
In short: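 Colorimetric kit run per manufacturer protocol. MMP-1 cleaves a thiopeptide substrate (Ac-PLG-[2-mercapto-4-methylpentanoyl]-LG-OC2H5); released thiol reacts with DTNB, monitored at 415 nm. IC50 (nM) from inhibition curves of normalized values.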

ADAM17 (TACE) = ADAM17 (TACE) (Homo sapiens, UniProt P78536); experiment: TACE fluorometric inhibition assay (Enzo kit BML-AK310)
ADAM17 (TACE), sequence (P78536 215-477 limits assumed): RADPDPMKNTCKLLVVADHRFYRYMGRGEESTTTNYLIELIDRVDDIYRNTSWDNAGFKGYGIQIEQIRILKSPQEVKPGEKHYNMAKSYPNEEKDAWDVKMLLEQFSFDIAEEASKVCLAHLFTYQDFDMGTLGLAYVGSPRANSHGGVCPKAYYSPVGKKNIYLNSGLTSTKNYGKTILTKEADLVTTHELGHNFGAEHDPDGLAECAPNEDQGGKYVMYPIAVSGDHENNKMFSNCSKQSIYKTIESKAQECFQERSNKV
In short: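 Kit-based TACE assay run per manufacturer's protocol, using quenched fluorogenic peptide Mca-PLAQAV-Dpa-RSSSR-NH2 whose cleavage raises Mca fluorescence. Signal read at ex/em 320/420 nm; IC50 (nM) derived from inhibition curves of normalized values.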

MMP13 = target: T2, MMP13 (Homo sapiens, UniProt P45452); experiment: MMP-13 colorimetric inhibition assay (Enzo kit BML-AK412)
T2 construct: purchased Enzo Life Sciences, Inc. BML-AK412
In short: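 Thiopeptide chromogenic substrate (Ac-PLG-[2-mercapto-4-methylpentanoyl]-LG-OC2H5); MMP-13 hydrolysis of the thioester yields a thiol that reacts with DTNB, read at 415 nm. IC50 values (nM) derived from inhibition curves of normalized data.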

MMP9 = MMP9 (Homo sapiens, UniProt P14780); experiment: MMP-9 colorimetric inhibition assay (Enzo kit BML-AK410)
MMP9, sequence (P14780 94-707): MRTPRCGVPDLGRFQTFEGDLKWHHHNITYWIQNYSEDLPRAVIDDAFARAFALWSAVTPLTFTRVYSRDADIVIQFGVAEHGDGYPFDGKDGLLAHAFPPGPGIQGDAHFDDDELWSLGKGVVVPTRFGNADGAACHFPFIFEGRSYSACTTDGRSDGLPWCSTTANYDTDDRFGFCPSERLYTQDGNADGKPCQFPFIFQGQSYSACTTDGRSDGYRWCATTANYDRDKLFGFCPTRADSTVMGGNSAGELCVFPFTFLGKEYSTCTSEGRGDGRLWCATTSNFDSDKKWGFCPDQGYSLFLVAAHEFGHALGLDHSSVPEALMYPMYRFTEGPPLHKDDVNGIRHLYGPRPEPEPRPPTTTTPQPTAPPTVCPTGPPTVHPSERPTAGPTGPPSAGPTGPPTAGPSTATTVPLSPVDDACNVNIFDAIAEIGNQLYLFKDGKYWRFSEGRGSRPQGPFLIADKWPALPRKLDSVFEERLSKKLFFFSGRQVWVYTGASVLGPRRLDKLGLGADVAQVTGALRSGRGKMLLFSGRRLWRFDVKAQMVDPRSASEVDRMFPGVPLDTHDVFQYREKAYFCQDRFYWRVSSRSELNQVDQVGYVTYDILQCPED
In short: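 Colorimetric thioester-substrate assay: hydrolysis of Ac-PLG-[2-mercapto-4-methylpentanoyl]-LG-OC2H5 frees a thiol that reacts with DTNB, read at 415 nm. Run per kit protocol. IC50 (nM) taken from inhibition curves of normalized values.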

MMP2 = target: T3, MMP2 (Homo sapiens, UniProt P08253); experiment: MMP-2 colorimetric inhibition assay (Enzo kit BML-AK408)
T3 sequence (P08253 110-660): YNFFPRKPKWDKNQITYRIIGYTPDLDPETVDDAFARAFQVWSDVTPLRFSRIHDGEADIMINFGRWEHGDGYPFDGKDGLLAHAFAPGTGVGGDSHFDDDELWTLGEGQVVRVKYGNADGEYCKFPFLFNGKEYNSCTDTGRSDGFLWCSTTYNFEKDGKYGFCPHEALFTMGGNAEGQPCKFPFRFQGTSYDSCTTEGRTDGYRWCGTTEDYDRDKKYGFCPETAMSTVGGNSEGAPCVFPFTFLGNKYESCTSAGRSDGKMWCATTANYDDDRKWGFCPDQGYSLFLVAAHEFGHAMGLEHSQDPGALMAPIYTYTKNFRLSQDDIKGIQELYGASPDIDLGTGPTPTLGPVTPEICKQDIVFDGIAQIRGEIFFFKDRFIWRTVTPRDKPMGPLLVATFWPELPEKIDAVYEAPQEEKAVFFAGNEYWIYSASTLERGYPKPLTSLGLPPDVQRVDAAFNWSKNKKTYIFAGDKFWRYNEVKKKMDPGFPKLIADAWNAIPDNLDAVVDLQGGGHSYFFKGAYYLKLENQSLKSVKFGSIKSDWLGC
In short: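 Cleavage of the thiopeptide Ac-PLG-[2-mercapto-4-methylpentanoyl]-LG-OC2H5 releases a sulfhydryl that reacts with DTNB, read at 415 nm per the kit protocol. IC50 values (nM) come from inhibition curves of normalized data.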

ADAM10 = target: T4, ADAM10 (Homo sapiens, UniProt O14672); experiment: SensoLyte 520 ADAM10 fluorometric activity assay (AnaSpec AS-72226)
T4 construct: purchased AnaSpec, Inc. AS-72226
T4 sequence (O14672 214-748): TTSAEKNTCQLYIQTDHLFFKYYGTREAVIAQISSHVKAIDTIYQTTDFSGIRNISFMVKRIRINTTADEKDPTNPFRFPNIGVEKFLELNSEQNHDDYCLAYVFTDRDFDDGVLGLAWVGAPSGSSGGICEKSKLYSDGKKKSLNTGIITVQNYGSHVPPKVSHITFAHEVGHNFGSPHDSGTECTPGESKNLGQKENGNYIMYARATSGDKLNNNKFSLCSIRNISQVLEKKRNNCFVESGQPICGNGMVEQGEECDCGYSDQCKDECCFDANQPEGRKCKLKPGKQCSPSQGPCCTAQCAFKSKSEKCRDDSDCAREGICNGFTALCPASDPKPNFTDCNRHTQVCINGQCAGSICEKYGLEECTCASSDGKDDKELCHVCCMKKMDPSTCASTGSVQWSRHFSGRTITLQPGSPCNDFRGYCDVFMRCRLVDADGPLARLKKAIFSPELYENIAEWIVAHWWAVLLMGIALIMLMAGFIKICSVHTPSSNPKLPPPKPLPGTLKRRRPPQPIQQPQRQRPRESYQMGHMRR
In short: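 ADAM10 activity was read by cleavage of a FRET peptide substrate (5-FAM/QXL 520), run per the kit protocol, with fluorescence at 495/520 nm. IC50 values (nM) came from inhibition curves of normalized data.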

[1] = thiopeptide substrate, absorbance 415 nm, read-out: MMP 1 IC50 class
[2] = quenched fluorogenic peptide, ex/em 320/420 nm, read-out: TACE IC50 class
[3] = thiopeptide substrate, absorbance 415 nm, read-out: MMP 13 IC50 class
[4] = thiopeptide substrate, absorbance 415 nm, read-out: MMP 9 IC50 class
[5] = thiopeptide substrate, absorbance 415 nm, read-out: MMP 2 IC50 class
[6] = FRET peptide substrate, ex/em 495/520 nm, read-out: ADAM 10 IC50 class

Structure (SMILES)	IC50 (MMP1; [1])	IC50 (ADAM17 (TACE); [2])	IC50 (MMP13; [3])	IC50 (MMP9; [4])	IC50 (MMP2; [5])	IC50 (ADAM10; [6])	IC50 (MMP1)	IC50 (ADAM17 (TACE))	IC50 (MMP13)	IC50 (MMP9)	IC50 (MMP2)	IC50 (ADAM10)
CC(=O)N1[C@@H]2CC[C@H]1[C@H](C(=O)NO)N(S(=O)(=O)c1ccc(Oc3ccc(OCC(F)(F)F)cc3)nc1)C2 [Example 62, (1S,2R,5R)-8-acetyl-N-hydroxy-3-((6-(4-(2,2,2-trifluoro-ethoxy)phenoxy)-pyridin-3-yl)-sulfonyl)-3,8-diazabicyclo[3.2.1]-octane-2-carboxamide]	1000 to 10000 nM	> 10000 nM	< 50 nM	< 50 nM	< 50 nM	> 10000 nM						
COc1ccc(Oc2ccc(S(=O)(=O)N3C[C@H]4CC[C@@H]([C@@H]3C(=O)NO)N4C(C)=O)cn2)cc1F [Example 63, (1S,2R,5R)-8-acetyl-3-((6-(3-fluoro-4-methoxyphenoxy)-pyridin-3-yl)-sulfonyl)-N-hydroxy-3,8-diazabicyclo[3.2.1]-octane-2-carboxamide]	1000 to 10000 nM	1000 to 10000 nM	< 50 nM	< 50 nM	< 50 nM	1000 to 10000 nM						
CCOC(=O)N1[C@@H]2CC[C@H]1[C@H](C(=O)NO)N(S(=O)(=O)c1ccc(Oc3ccc(F)cc3)nc1)C2 [Example 65, ethyl (1S,2R,5R)-3-((6-(4-fluorophenoxy)pyridin-3-yl)sulfonyl)-2-(hydroxycarbamoyl)-3,8-diazabicyclo[3.2.1]octane-8-carboxylate]	50 to 1000 nM	1000 to 10000 nM	< 50 nM	< 50 nM	< 50 nM	> 10000 nM						
COC(=O)N1[C@@H]2CC[C@H]1[C@H](C(=O)NO)N(S(=O)(=O)c1ccc(Oc3ccc(F)cc3)nc1)C2 [Example 66, methyl (1S,2R,5R)-3-((6-(4-fluoro-phenoxy)pyridin-3-yl)sulfonyl)-2-(hydroxycarbamoyl)-3,8-diazabicyclo-[3.2.1]octane-8-carboxylate]	1000 to 10000 nM	1000 to 10000 nM	< 50 nM	< 50 nM	< 50 nM	> 10000 nM						
CC(C)OC(=O)N1[C@@H]2CC[C@H]1[C@H](C(=O)NO)N(S(=O)(=O)c1ccc(Oc3ccc(F)cc3)nc1)C2 [Example 67, isopropyl (1S,2R,5R)-3-((6-(4-fluorophenoxy)-pyridin-3-yl)-sulfonyl)-2-(hydroxycarbamoyl)-3,8-diazabicyclo-[3.2.1]octane-8-carboxylate]	50 to 1000 nM	1000 to 10000 nM	< 50 nM	< 50 nM	< 50 nM	> 10000 nM						
O=C(NO)[C@H]1[C@@H]2CC[C@H](CN1S(=O)(=O)c1ccc(Oc3ccc(OC(F)(F)F)cc3)nc1)N2C(=O)N1CCOCC1 [Example 70, (1S,2R,5R)-N-hydroxy-8-(morpholine-4-carbonyl)-3-((6-(4-(trifluoromethoxy)-phenoxy)pyridin-3-yl)sulfonyl)-3,8-diazabicyclo[3.2.1]-octane-2-carboxamide]	> 10000 nM	1000 to 10000 nM	< 50 nM	< 50 nM	< 50 nM	> 10000 nM						
O=C(NO)[C@H]1[C@@H]2CC[C@H](CN1S(=O)(=O)c1ccc(Oc3ccc(OCC(F)(F)F)cc3)nc1)N2C(=O)N1CCOCC1 [Example 72, (1S,2R,5R)-N-hydroxy-8-(morpholine-4-carbonyl)-3-((6-(4-(2,2,2-trifluoroethoxy)-phenoxy)pyridin-3-yl)sulfonyl)-3,8-diazabicyclo[3.2.1]-octane-2-carboxamide]							1000 to 10000 nM	> 10000 nM	< 50 nM	< 50 nM	< 50 nM	> 10000 nM
